# Laboratory results from patent US10351586B2, “Cytidine derivative dimers and applications thereof” (CHANGZHOU FANGYUAN PHARMACEUTICAL CO., LTD, priority 2014, dated 2019).
# Marks after values point to notes of the source that are not given here.
# Columns and labels:
# [1] = Body weight / toxicity of a single intraperitoneal injection in HCT-116 colon tumor-bearing nude mice; conditions: D3 350 mg/kg, D4 300 mg/kg; for Average rate of weight change of the animals / Average weight of the animals: single IP injection (QD×1), D1 and D2 400 mg/kg; for Average weight of the animals: Mean±SEM
# Procedure: Corresponding test substance was weighed and put into a 5 mL glass tube. The test substance was dissolved in ethanol under the stirring by a 5 mm magnetic stirrer. After a complete dissolution, Cremophor EL was added with continuous stirring. Immediately prior to the user of the test substance, the labeled amount of physiological saline was added and stirred.
# Animal experiments were performed. The animals were female Balb/c nude mice at specific pathogen free (SPF) level and were supplied from Shanghai Sippr/BK Lab Animal Ltd. (Shanghai, China). […] These animals were at the age of about 7 weeks to about 9 weeks at the beginning of the experiments and had the weight of about 18 grams to about 22 grams at the beginning of the experiment. The animals had acclimatization duration of about 5 days to about 7 days. Animals were numbered using their tail number. The animal room was maintained at about 23±2° C., 40%-70% humidity, with alternating light and dark every 12 hours.
# 4.2 Animal inoculation and grouping were performed. Under aseptic conditions, each nude mice was injected with 0.1 mL cell suspension into the right hind leg subcutaneously (3×10^6 cell/mouse). When the size of the tumor grew to have a volume of about 60-150 mm^3, nude mice with a similar tumor size and a desirable shape (e.g., with substantially same shape such as a substantially spherical shape, without having irregular shapes or multiple tumors grouped together) were selected and grouped. In the experiment, there were six mice in each group.
# The mice in control group were injected with a mixed solution including ethanol, Cremophor EL and normal saline at a ratio of 5:5:90.
# The mice were weighed 3 times every week.
# 4.4 Clinical symptoms were provided. All clinical symptoms of each animal were recorded at the beginning of the experiments and during the experiments. The observation was performed at the same time every day.
# After administration of the test substance, when the weight reduction was >20%, when the animal was dying, or when the tumor volume exceeds about 2800 mm^3, the animal were euthanized by applying CO2. The tumor was separated and weighed, an autopsy was performed, and visual inspection was conducted and recorded on whether there were pathological changes in the organs.
# [2] = test system: HCT-116 human colon cancer xenografts; experiment: Tumor growth inhibition of HCT-116 human colon cancer xenografts in nude mice; type: in vivo, Balb/c nude mice; conditions: for Relative tumor proliferation rate (T/C %) / Relative tumor volume (RTV) / Tumor growth inhibition rate (TGI %) / Tumor volume of HCT-116 human colon cancer xenografts: single IP injection (QD×1), D1 and D2 400 mg/kg, D3 350 mg/kg, D4 300 mg/kg; for Tumor volume of HCT-116 human colon cancer xenografts: Mean±SEM
# Summary of the method: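 HCT-116 cells grown in F-12 with 10% FBS, inoculated into nude mice at ~3×10^7 cells/mL. Tumour diameter measured three times weekly, volume as V=3/4π(D/2)^3; activity given as TGI (%) versus control and T/C (%) from relative tumour volume Vt/V0.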
# [3] = D1 400 mg/kg Day 7, D2 400 mg/kg Day 9, D3 350 mg/kg Day 11, D4 300 mg/kg Day 11, single IP
compound,measurement,setting,value
"CCCCOC(=O)Nc1ccn(C2OC(COC(=O)CCC(=O)OC[C@H]3O[C@@H](n4ccc(NC(=O)OCc5ccccc5)nc4=O)C(F)(F)[C@@H]3O)C(O)C2(F)F)c(=O)n1 (stereo in doubt) [Compound D4, 1-O-(4-N-(Benzyloxycarbonyl)-gemcitabine)-4-O-(4-N-(n-Butoxycarbonyl)-gemcitabine)-succinate]",Average rate of weight change of the animals,[1]; Day 0,0.00%
same,Average weight of the animals,[1]; Day 0,20.15 ± 0.29 g
same,Average rate of weight change of the animals,[1]; Day 1,−1.17 ± 1.27%
same,Average weight of the animals,[1]; Day 1,19.90 ± 0.19 g
same,Average rate of weight change of the animals,[1]; Day 2,−8.18 ± 1.56 %
same,Average weight of the animals,[1]; Day 2,18.48 ± 0.2 g
same,Average rate of weight change of the animals,[1]; Day 4,−5.33 ± 1.78%
same,Average weight of the animals,[1]; Day 4,19.07 ± 0.36 g
same,Average rate of weight change of the animals,[1]; Day 7,−1.43 ± 1.92%
same,Average weight of the animals,[1]; Day 7,19.85 ± 0.38 g
same,Average rate of weight change of the animals,[1]; Day 9,2.91 ± 0.55 %
same,Average weight of the animals,[1]; Day 9,20.73 ± 0.29 g
same,Average rate of weight change of the animals,[1]; Day 11,4.47 ± 0.52 %
same,Average weight of the animals,[1]; Day 11,21.05 ± 0.31 g
same,Average rate of weight change of the animals,[1]; Day 14,3.72 ± 0.73 %
same,Average weight of the animals,[1]; Day 14,20.90 ± 0.34 g
same,Average rate of weight change of the animals,[1]; Day 16,6.62 ± 0.79 %
same,Average weight of the animals,[1]; Day 16,21.48 ± 0.34 g
same,Average rate of weight change of the animals,[1]; Day 18,8.99 ± 1.38 %
same,Average weight of the animals,[1]; Day 18,21.95 ± 0.27 g
same,Average rate of weight change of the animals,[1]; Day 21,7.41 ± 1.37 %
same,Average weight of the animals,[1]; Day 21,21.63 ± 0.30 g
same,Average rate of weight change of the animals,[1]; Day 23,9.37 ± 1.82 %
same,Average weight of the animals,[1]; Day 23,22.03 ± 0.43 g
same,Average rate of weight change of the animals,[1]; Day 25,10.69 ± 2.14 %
same,Average weight of the animals,[1]; Day 25,22.30 ± 0.49 g
same,Average rate of weight change of the animals,[1]; Day 28,8.62 ± 2.68%
same,Average weight of the animals,[1]; Day 28,21.88 ± 0.59 g
same,Average rate of weight change of the animals,[1]; Day 30,9.36 ± 2.21%
same,Average weight of the animals,[1]; Day 30,22.03 ± 0.53 g
same,Toxicity in tumor-bearing mice (in words),"[1]; single IP injection, D2 400 mg/kg, judged from body weight versus control",no toxicity
same,"Relative tumor proliferation rate, minimum",[2]; [3],25.94%
same,"Tumor inhibition rate, maximum",[2]; [3],97.32%
same,Relative tumor proliferation rate (T/C %),[2]; Day 0,0.00%
same,Relative tumor volume (RTV),[2]; Day 0,1.00
same,Tumor growth inhibition rate (TGI %),[2]; Day 0,0.00%
same,Tumor volume of HCT-116 human colon cancer xenografts,[2]; Day 0,44.09 ± 5.99** mm^3
same,Relative tumor proliferation rate (T/C %),[2]; Day 1,77.07%
same,Relative tumor volume (RTV),[2]; Day 1,1.12 ± 0.12
same,Tumor growth inhibition rate (TGI %),[2]; Day 1,71.17%
same,Tumor volume of HCT-116 human colon cancer xenografts,[2]; Day 1,52.03 ± 12.91** mm^3
same,Relative tumor proliferation rate (T/C %),[2]; Day 2,66.48%
same,Relative tumor volume (RTV),[2]; Day 2,1.12 ± 0.12
same,Tumor growth inhibition rate (TGI %),[2]; Day 2,76.55%
same,Tumor volume of HCT-116 human colon cancer xenografts,[2]; Day 2,52.03 ± 12.91** mm^3
same,Relative tumor proliferation rate (T/C %),[2]; Day 4,43.31%
same,Relative tumor volume (RTV),[2]; Day 4,0.79 ± 0.11
same,Tumor growth inhibition rate (TGI %),[2]; Day 4,87.42%
same,Tumor volume of HCT-116 human colon cancer xenografts,[2]; Day 4,37.37 ± 10.46** mm^3
same,Relative tumor proliferation rate (T/C %),[2]; Day 7,31.86%
same,Relative tumor volume (RTV),[2]; Day 7,0.55 ± 0.10
same,Tumor growth inhibition rate (TGI %),[2]; Day 7,94.11%
same,Tumor volume of HCT-116 human colon cancer xenografts,[2]; Day 7,25.46 ± 8.17** mm^3
same,Relative tumor proliferation rate (T/C %),[2]; Day 9,30.55%
same,Relative tumor volume (RTV),[2]; Day 9,0.55 ± 0.12
same,Tumor growth inhibition rate (TGI %),[2]; Day 9,96.19%
same,Tumor volume of HCT-116 human colon cancer xenografts,[2]; Day 9,22.50 ± 5.31** mm^3
same,Relative tumor proliferation rate (T/C %),[2]; Day 11,25.94%
same,Relative tumor volume (RTV),[2]; Day 11,0.69 ± 0.20
same,Tumor growth inhibition rate (TGI %),[2]; Day 11,97.32%
same,Tumor volume of HCT-116 human colon cancer xenografts,[2]; Day 11,26.19 ± 5.79** mm^3
same,Relative tumor proliferation rate (T/C %),[2]; Day 14,32.83%
same,Relative tumor volume (RTV),[2]; Day 14,1.81 ± 0.54
same,Tumor growth inhibition rate (TGI %),[2]; Day 14,95.12%
same,Tumor volume of HCT-116 human colon cancer xenografts,[2]; Day 14,70.28 ± 18.37** mm^3
same,Relative tumor proliferation rate (T/C %),[2]; Day 16,37.96%
same,Relative tumor volume (RTV),[2]; Day 16,3.29 ± 0.82
same,Tumor growth inhibition rate (TGI %),[2]; Day 16,92.12%
same,Tumor volume of HCT-116 human colon cancer xenografts,[2]; Day 16,142.77 ± 49.34** mm^3
same,Relative tumor proliferation rate (T/C %),[2]; Day 18,26.76%
same,Relative tumor volume (RTV),[2]; Day 18,5.11 ± 1.12
same,Tumor growth inhibition rate (TGI %),[2]; Day 18,88.56%
same,Tumor volume of HCT-116 human colon cancer xenografts,[2]; Day 18,228.58 ± 76.92** mm^3
same,Relative tumor proliferation rate (T/C %),[2]; Day 21,37.28%
same,Relative tumor volume (RTV),[2]; Day 21,8.73 ± 1.39
same,Tumor growth inhibition rate (TGI %),[2]; Day 21,84.66%
same,Tumor volume of HCT-116 human colon cancer xenografts,[2]; Day 21,375.06 ± 86.27 mm^3
same,Relative tumor proliferation rate (T/C %),[2]; Day 23,50.04%
same,Relative tumor volume (RTV),[2]; Day 23,9.89 ± 1.30
same,Tumor growth inhibition rate (TGI %),[2]; Day 23,82.19%
same,Tumor volume of HCT-116 human colon cancer xenografts,[2]; Day 23,420.73 ± 76.08 mm^3
same,Relative tumor proliferation rate (T/C %),[2]; Day 25,53.68%
same,Relative tumor volume (RTV),[2]; Day 25,11.61 ± 1.51
same,Tumor growth inhibition rate (TGI %),[2]; Day 25,80.98%
same,Tumor volume of HCT-116 human colon cancer xenografts,[2]; Day 25,491.29 ± 83.78 mm^3
same,Relative tumor proliferation rate (T/C %),[2]; Day 28,69.72%
same,Relative tumor volume (RTV),[2]; Day 28,14.73 ± 2.18
same,Tumor growth inhibition rate (TGI %),[2]; Day 28,77.39%
same,Tumor volume of HCT-116 human colon cancer xenografts,[2]; Day 28,608.08 ± 85.37 mm^3
same,Relative tumor proliferation rate (T/C %),[2]; Day 30,76.91%
same,Relative tumor volume (RTV),[2]; Day 30,19.08 ± 2.98
same,Tumor growth inhibition rate (TGI %),[2]; Day 30,72.14%
same,Tumor volume of HCT-116 human colon cancer xenografts,[2]; Day 30,781.78 ± 105.33 mm^3
same,Inhibition of growth of HCT-116 human colon cancer xenografts (in words),"[2]; single IP injection, 300-400 mg/kg",higher tumor inhibition rates
